In patent US8193203B2, “Bicyclic compounds having activity at the CXCR4 receptor” (Allergan, Inc., priority 2008, dated 2012):

Biological target: T1, human CXCR4 receptor (Homo sapiens, UniProt P61073)
T1 construct: expressed in transfected cells
Assay: Measurement of intracellular Ca+2 responses (FLIPR), antagonism of the SDF-1α response
Assay type: cell-based
Conditions: for IC50: HEK-Gqi5 cells stably expressing human CXCR4, Fluo-4 FLIPR, antagonism of SDF-1α 1.9 nM (EC65); for CXCR4 (% Inh): percent antagonism of SDF-1α 1.9 nM (EC65) response, HEK-Gqi5 human CXCR4 cells, value in brackets
Experimental: Measurement of Intracellular Ca^+2 Responses for CXCR4 Compounds
HEK-Gqi5 cells stably expressing the human CXCR4 receptor were utilized for these studies. The growth media for the CXCR4 receptor expressing cell line was DMEM high glucose medium supplemented with 10% fetal bovine serum (FBS), 1% antibiotic-antimycotic, 50 ug/ml hygromycin B, and 400 μg/ml geneticin. Ten thousand cells per well were plated into 384-well poly-D-lysine coated plates one day prior to use. On the day of the experiment, the cells were washed twice with Hank's Balanced Salt Solution supplemented with 20 mM hepes (HBSS/hepes buffer). The cells were then dye loaded with 2 uM Fluo-4 diluted in the HBSS/Hepes buffer and incubated at 37° C. for 40 minutes. Extracellular dye was removed by washing the cell plates four times prior to placing the plates in the FLIPR (Fluorometric Imaging Plate Reader, Molecular Devices). Ligands were diluted in HBSS/Hepes buffer and prepared in 384-well microplates. The positive control, stromal-cell derived factor-1 (SDF-1α), was diluted in HBSS/Hepes buffer with 4 mg/ml fatty acid free bovine serum albumin. Two drug additions were made by the FLIPR. The first drug addition was the test drug in concentrations ranging from 2.44 nM to 40,000 nM. After this addition, fluorescent measurements were taken. Any calcium release in response to this drug addition represents agonist activity of the compounds. The second drug addition was SDF-1α at a final concentration of 1.9 nM (EC65). Fluorescence measurements were also taken after this second drug addition and were used to determine the ability of the test compounds to antagonize the SDF-1α response. Results were expressed as EC50 and efficacy values, as well as IC50 and percent antagonism values. As controls, SDF-1α (CXCR4 agonist) and AMD3100 (CXCR4 antagonist) dose-response curves were also determined in each study.

T1 sequence (P61073 whole entry): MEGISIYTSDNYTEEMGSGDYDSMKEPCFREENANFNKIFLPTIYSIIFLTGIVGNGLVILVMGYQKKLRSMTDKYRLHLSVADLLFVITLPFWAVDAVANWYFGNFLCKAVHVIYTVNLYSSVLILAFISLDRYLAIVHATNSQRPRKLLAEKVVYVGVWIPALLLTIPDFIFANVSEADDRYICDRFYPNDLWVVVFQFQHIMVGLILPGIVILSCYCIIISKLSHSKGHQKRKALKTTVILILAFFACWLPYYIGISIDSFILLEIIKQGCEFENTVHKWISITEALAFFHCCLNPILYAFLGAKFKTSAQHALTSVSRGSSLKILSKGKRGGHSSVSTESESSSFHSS

Compound	IC50 (values given in μM) [µM]	CXCR4 (% Inh) [%]	IC50 (values in nM) [µM]
COc1cccc(N(C)C)c1CN1CCC(Nc2nc(NCC3CCN(C)C3)nc3ccccc23)CC1 (stereo not drawn) [Compound 121, N4-(1-(2-(Dimethylamino)-6-methoxybenzyl)piperidin-4-yl)-N2-((1-methylpyrrolidin-3-yl)methyl)quinazoline-2,4-diamine]	–	97	0.38
COc1cc2nc(NCCCN(C)C)nc(NCCNCc3c(OC)cccc3N(C)C)c2cc1OC [Compound 178, N˜4˜-(2-{[2-(Dimethylamino)-6-methoxybenzyl]amino}ethyl)-N˜2˜-[3-(dimethylamino)propyl]-6,7-dimethoxyquinazoline-2,4-diamine]	> 10	49	–
COc1cc2nc(NCCN(C)C)nc(NC3CCN(Cc4c(OCCCN(C)C)cccc4N(C)C)CC3)c2cc1OC [Compound 203, N˜4˜-(1-{2-(Dimethylamino)-6-[3-(dimethylamino)propoxy]benzyl}piperidin-4-yl)-N˜2˜-[2-(dimethylamino)ethyl]-6,7-dim ethoxyquinazoline-2,4-diamine]	–	94	0.066
COc1cc2nc(NCCO)nc(NC3CCN(Cc4c(OCCN(C)C)cccc4N(C)C)CC3)c2cc1OC [Compound 208, 2-({4-[(1-{2-(Dimethylamino)-6-[2-(dimethylamino)ethoxy]benzyl}piperidin-4-yl)amino]-6,7-dimethoxyquinazolin-2-yl}amino)ethanol]	–	98	0.169
COc1cccc(N(C)C)c1CN1CCC(Nc2nc(NCC[C@H]3CCCN3C(=O)OC(C)(C)C)nc3ccccc23)CC1 [Compound 116, (R)-tert-Butyl 2-(2-(4-(1-(2-(Dimethylamino)-6-methoxybenzyl)piperidin-4-ylamino)quinazolin-2-ylamino)ethyl)pyrrolidine-1-carboxylate]	2.2	83	–
CCN(CC)CCCCNc1nc(NC2CCN(Cc3c(OC)cccc3N(C)C)CC2)c2ccccc2n1 [Compound 66, N2-(4-(Diethylamino)butyl)-N4-(1-(2-(dimethylamino)-6-methoxybenzyl)piperidin-4-yl)quinazoline-2,4-diamine]	–	93	0.2
COc1cc2nc(NC[C@H](O)CO)nc(NC3CCN(Cc4c(OCCN(C)C)cccc4N(C)C)CC3)c2cc1OC [Compound 195, 3-({4-[(1-{2-(Dimethylamino)-6-[2-(dimethylamino)ethoxy]benzyl}piperidin-4-yl)amino]-6,7-dimethoxyquinazolin-2-yl}amino)propane-1,2-diol]	–	98	0.031
CCN1CCC(CNc2nc(NC3CCN(Cc4c(OC)cccc4N(C)C)CC3)c3ccccc3n2)C1 (stereo not drawn) [Compound 107, N4-(1-(2-(Dimethylamino)-6-methoxybenzyl)piperidin-4-yl)-N2-((1-ethylpyrrolidin-3-yl)methyl)quinazoline-2,4-diamine]	–	96	0.653
COc1cccc(N(C)C)c1CN1CCC(Nc2nc(NCCCn3ccnc3)nc3ccccc23)CC1 [Compound 120, N2-(3-(1H-Imidazol-1-yl)propyl)-N4-(1-(2-(dimethylamino)-6-methoxybenzyl)piperidin-4-yl)quinazoline-2,4-diamine]	1.7	95	–

Second part, the compound after the results:

IC50 (values given in μM) [µM]	CXCR4 (% Inh) [%]	IC50 (values in nM) [µM]	Compound
1.4	84	–	CCN(CC)CCCNc1nc(NC2CCN(Cc3ccccc3-n3cccc3)CC2)c2ccccc2n1 [Compound 132, N4-(1-(2-(1H-Pyrrol-1-yl)benzyl)piperidin-4-yl)-N2-(3-(diethylamino)propyl)quinazoline-2,4-diamine]
1.1	92	–	CCN(CC)CCCNc1nc(NC2CCN(Cc3ccccc3N3CCCC3)CC2)c2cc(OC)c(OC)cc2n1 [Compound 51]
–	88	0.614	COc1cccc(N(C)C)c1CN1CCC(Nc2nc(NCCCNC(=O)OC(C)(C)C)nc3ccccc23)CC1 [Compound 225, tert-Butyl-3-(4-(1-(2-(dimethylamino)-6-methoxybenzyl)piperidin-4-ylamino)quinazolin-2-ylamino)propylcarbamate]
–	96	0.387	COc1cccc(N(C)C)c1CN1CCC(Nc2nc(NCCc3c[nH]cn3)nc3ccccc23)CC1 [Compound 119, N2-(2-(1H-Imidazol-4-yl)ethyl)-N4-(1-(2-(dimethylamino)-6-methoxybenzyl)piperidin-4-yl)quinazoline-2,4-diamine]
2.9	96	–	COc1cccc(N(C)C)c1CN1CCC(Nc2nc(NCCNC(=O)NC(C)C)nc3ccccc23)CC1 [Compound 126, 1-(2-(4-(1-(2-(Dimethylamino)-6-methoxybenzyl)piperidin-4-ylamino)quinazolin-2-ylamino)ethyl)-3-isopropylurea]
–	95	0.065	COc1cc2nc(NCCN(C)C)nc(NC3CCN(Cc4c(OCCN5CCCC5)cccc4N(C)C)CC3)c2cc1OC [Compound 193, N˜2˜-[2-(Dimethylamino)ethyl]-N˜4˜-{1-[2-(dimethylamino)-6-(2-pyrrolidin-1-ylethoxy)benzyl]piperidin-4-yl}-6,7-dimethoxyquinazoline-2,4-diamine]
4.9	93	–	CCN(CC)CCCNc1nc(NC2CCN(Cc3ccccc3[N+](=O)[O-])CC2)c2cc(OC)c(OC)cc2n1 [Compound 65, N2-(3-(Diethylamino)propyl)-6,7-dimethoxy-N4-(1-(2-nitrobenzyl)piperidin-4-yl)quinazoline-2,4-diamine]
2.1	75	–	COc1cccc(N(C)C)c1CN1CCC(Nc2nc(NCC[C@@H]3CCCN3C(=O)OC(C)(C)C)nc3ccccc23)CC1 [Compound 114, (S)-tert-Butyl 2-(2-(4-(1-(2-(Dimethylamino)-6-methoxybenzyl)piperidin-4-ylamino)quinazolin-2-ylamino)ethyl)pyrrolidine-1-carboxylate]
1.2	96	–	COc1cccc(N(C)C)c1CN1CCC(Nc2nc(NCCCN(C)C)nc3ccc(Br)cc23)CC1 [Compound 146, 6-Bromo-N˜4˜-{1-[2-(dimethylamino)-6-methoxybenzyl]piperidin-4-yl}-N˜2˜-[3-(dimethylamino)propyl]quinazoline-2,4-diamine]
–	97	0.538	N˜4˜-{1-[2-(Dimethylamino)-6-methoxybenzyl]pyrrolidin-3-yl}-N˜2˜-[3-(dimethylamino)propyl]-6,7-dimethoxyquinazoline-2,4-diamine [Compound 165]
2.1	77	–	COc1cccc(N(C)C)c1CN1CCC(Nc2nc(NC[C@@H]3CCN(C(=O)OC(C)(C)C)C3)nc3ccccc23)CC1 [Compound 112, (S)-tert-Butyl 3-((4-(1-(2-(Dimethylamino)-6-methoxybenzyl)piperidin-4-ylamino)quinazolin-2-ylamino)methyl)pyrrolidine-1-carboxylate]
2.1	100	–	COc1cccc(N(C)C)c1CN1CCC(Nc2nc(N3CCCN(C)CC3)nc3ccccc23)CC1 [Compound 217, N-(1-(2-(Dimethylamino)-6-methoxybenzyl)piperidin-4-yl)-2-(4-methyl-1,4-diazepan-1-yl)quinazolin-4-amine]
